{"source": "patent US12324841B2", "about": "“Methods of treating cancer with a combination of an anti-PD-1 antibody and an anti-tissue factor antibody-drug conjugate” (GENMAB A/S, priority 2018, dated 2025)", "key": {"[1]": {"system": "Tissue Factor positive cell lines", "test": "Cell death and release of ATP and HMGB1 from Tissue Factor positive cell lines", "assay_type": "cell-based", "description": "Auristatin ADC payloads disrupt the microtubule networks resulting in altered ER localization and function, which ultimately results in ER stress."}, "[2]": {"system": "HPAFII (pancreatic carcinoma)", "test": "Western blot analysis of ER stress induction in HPAFII cells", "assay_type": "cell-based", "conditions": "18 hours (legend: 16 hours)", "procedure": "Induction of cell death and release of ICD danger signals occurs concomitant with initiation of an ER stress response. Two Tissue Factor positive cell lines, HPAFII (pancreatic carcinoma) and MDA-MB-231 (breast cell carcinoma) were exposed to tisotumab vedotin ADC, an Isotype-MMAE ADC (H00-MMAE, IgG1 MMAE), or free MMAE for 18 hours and induction of ER stress monitored by western blot analysis. Phosphorylation of inositol-requiring transmembrane kinase/endonuclease 1 (IRE1) was detected after treatment with tisotumab vedotin ADC or MMAE free drug (FIG. 6). […] The ability for auristatins to prime the immune system to recognize tumor antigens opens the door for a myriad of combinatorial therapeutic options."}, "[3]": {"system": "CD14+ monocyte/macrophages", "test": "Monocyte/macrophage activation in PBMCs fed killed MDA-MB-231 cells", "assay_type": "cell-based, human", "description": "FIGS. 7A and 7B is a series of graphs in which Tissue Factor positive MDA-MB-231 cells killed with various agents were fed to human peripheral blood mononuclear cells (PBMCs) and immune activation assessed by increased expression of activations markers on innate CD14+ monocyte/macrophages and induction of chemokine and cytokine production.\nImmunogenic cell death, as mediated by MMAE, is regulated cell death that activates adaptive immune responses against antigens from dead and dying tumor cells, and allows for the generation of robust innate immune cell activation and subsequent cytotoxic T cell responses targeted towards specific tumor cell antigens. […] Furthermore, these monocyte/macrophages conditioned by ICD-killed cells promote activation of T cells, as evidenced by production of signature inflammatory cytokines associated with cytotoxic T cell responses."}, "[4]": {"system": "T cells", "test": "T cell activation in CSFE labeled PBMCs fed killed MDA-MB-231 cells, with or without pembrolizumab", "assay_type": "cell-based, human", "conditions": "48 hours, without pembrolizumab", "procedure": "FIG. 8A-8C is a series of graphs in which Tissue Factor positive MDA-MB-231 cells killed with various agents were fed to CSFE labeled human peripheral blood mononuclear cells (PBMCs) in the presence or absence of the PD1 targeting antibody pembrolizumab for 48 hours and T cells activation assessed by A) decreased CSFE fluorescent indicative of T cell proliferation and B) and C) cytokine production.\nInduction of the innate immune response following exposure to cancer cells undergoing ICD sets up secondary T cell activation, which can be enhanced by concomitant pembrolizumab treatment."}, "[5]": {"conditions": "compared to IgG1-MMAE ADC or tisotumab alone"}}, "note": "Entries after “also recorded” stand apart in the source; their conditions may differ.", "data": [{"substance": "tisotumab vedotin: antibody-drug conjugate comprising an antibody that binds to tissue factor (TF), a protease-cleavable linker, and the microtubule disrupting agent MMAE", "values": [{"measurement": "cell death", "setting": "[1]", "value": "undergo cell death"}, {"measurement": "ATP release/secretion", "setting": "[1]; FIG. 5A", "value": "drove robust A) ATP secretion; also recorded: release the ICD related molecules ATP"}, {"measurement": "activity on multiple Tissue Factor positive cell lines", "setting": "[1]; FIG. 5B", "value": "active on multiple Tissue Factor positive cell lines"}, {"measurement": "HMGB1 release/secretion", "setting": "[1]; FIG. 5C", "value": "drove robust A) ATP secretion and C) HMGB1 release; also recorded: release the ICD related molecules ATP (FIG. 5A) and HMGβ1"}, {"measurement": "ATF4 cleavage (PERK pathway)", "setting": "[2]", "value": "upregulation of ATF4 cleavage"}, {"measurement": "phosphorylation of IRE1", "setting": "[2]", "value": "detected"}, {"measurement": "phosphorylation of JNK", "setting": "[2]", "value": "increased phosphorylation"}, {"measurement": "chemotactic and inflammatory mediators from monocyte/macrophages after uptake of dead cells", "setting": "[3]", "value": "elicit strong chemotactic and inflammatory mediators"}, {"measurement": "monocyte/macrophage activation, CD86 expression by flow cytometry", "setting": "[3]; [5]", "value": "drove monocyte/macrophage activations"}, {"measurement": "release of innate chemokines including MIP 1β", "setting": "[3]; [5]", "value": "induced release of innate chemokines including MIP 1β"}, {"measurement": "T cell proliferation (CSFE dilution)", "setting": "[4]", "value": "drove T cell proliferation"}, {"measurement": "production of IFNγ", "setting": "[4]", "value": "production of T cell specific cytokines such as IL12P70 and IFNγ"}, {"measurement": "production of IL12p70", "setting": "[4]", "value": "production of T cell specific cytokines such as IL12P70 and IFNγ"}]}]}
